Assay results from BigSolDB 2.1.

Cc1ccc(S(N)(=O)=O)cc1
Details	solubility (mole fraction)
in acetone, 273.15 K	0.128
in acetone, 279.15 K	0.137
in acetone, 283.65 K	0.144
in acetone, 289.15 K	0.154
in acetone, 293.65 K	0.163
in acetone, 298.85 K	0.173
in acetone, 303.25 K	0.184
in acetone, 308.95 K	0.197
in acetone, 313.15 K	0.211
in acetone, 317.65 K	0.227
in acetone, 322.15 K	0.243
in acetonitrile, 273.15 K	0.0408
in acetonitrile, 279.15 K	0.047
in acetonitrile, 284.15 K	0.0538
in acetonitrile, 289.15 K	0.063
in acetonitrile, 294.15 K	0.0722
in acetonitrile, 299.15 K	0.0826
in acetonitrile, 303.65 K	0.093
in acetonitrile, 309.15 K	0.106
in acetonitrile, 313.15 K	0.121
in acetonitrile, 319.15 K	0.143
in acetonitrile, 324.75 K	0.164
in cyclohexanone, 273.15 K	0.122
in cyclohexanone, 279.15 K	0.131
in cyclohexanone, 284.15 K	0.139
in cyclohexanone, 289.15 K	0.147
in cyclohexanone, 294.15 K	0.157
in cyclohexanone, 299.15 K	0.169
in cyclohexanone, 303.65 K	0.18
in cyclohexanone, 309.15 K	0.192
in cyclohexanone, 313.15 K	0.206
in cyclohexanone, 319.15 K	0.226
in cyclohexanone, 324.75 K	0.244
in cyclopentanone, 273.15 K	0.149
in cyclopentanone, 279.15 K	0.158
in cyclopentanone, 284.15 K	0.166
in cyclopentanone, 289.15 K	0.175
in cyclopentanone, 294.15 K	0.185
in cyclopentanone, 299.15 K	0.196
in cyclopentanone, 303.65 K	0.206
in cyclopentanone, 309.15 K	0.218
in cyclopentanone, 313.15 K	0.231
in cyclopentanone, 319.15 K	0.249
in cyclopentanone, 324.75 K	0.266
in dichloromethane, 273.15 K	0.00336
in dichloromethane, 279.15 K	0.00392
in dichloromethane, 284.15 K	0.00458
in dichloromethane, 289.15 K	0.00587
in dichloromethane, 294.15 K	0.00705
in dichloromethane, 299.15 K	0.00877
in dichloromethane, 303.65 K	0.0103
in dichloromethane, 309.15 K	0.0128
in dichloromethane, 312.15 K	0.0143
in ethanol, 273.15 K	0.0174
in ethanol, 279.15 K	0.0203
in ethanol, 283.65 K	0.0233
in ethanol, 289.15 K	0.0268
in ethanol, 293.65 K	0.0312
in ethanol, 298.85 K	0.0361
in ethanol, 303.25 K	0.0425
in ethanol, 308.95 K	0.05
in ethanol, 313.15 K	0.0592
in ethanol, 317.65 K	0.0705
in ethanol, 322.15 K	0.0842
in ethyl acetate, 273.15 K	0.0364
in ethyl acetate, 279.15 K	0.0401
in ethyl acetate, 283.65 K	0.0442
in ethyl acetate, 289.15 K	0.0481
in ethyl acetate, 293.65 K	0.0541
in ethyl acetate, 298.85 K	0.059
in ethyl acetate, 303.25 K	0.0652
in ethyl acetate, 308.95 K	0.0718
in ethyl acetate, 313.15 K	0.0797
in ethyl acetate, 317.65 K	0.0897
in ethyl acetate, 322.15 K	0.1
in ethyl formate, 273.15 K	0.023
in ethyl formate, 279.15 K	0.0268
in ethyl formate, 284.15 K	0.0308
in ethyl formate, 289.15 K	0.0342
in ethyl formate, 294.15 K	0.0391
in ethyl formate, 299.15 K	0.0447
in ethyl formate, 303.65 K	0.0507
in ethyl formate, 309.15 K	0.0582
in ethyl formate, 313.15 K	0.0655
in ethyl formate, 319.15 K	0.0784
in ethyl formate, 324.75 K	0.0914
in isobutanol, 273.15 K	0.00456
in isobutanol, 279.15 K	0.00562
in isobutanol, 283.65 K	0.0069
in isobutanol, 289.15 K	0.00846
in isobutanol, 293.65 K	0.0103
in isobutanol, 298.85 K	0.0124
in isobutanol, 303.25 K	0.016
in isobutanol, 308.95 K	0.0193
in isobutanol, 313.15 K	0.0236
in isobutanol, 317.65 K	0.0288
in isobutanol, 322.15 K	0.0357
in isopentanol, 273.15 K	0.00515
in isopentanol, 279.15 K	0.00618
in isopentanol, 284.15 K	0.00814
in isopentanol, 289.15 K	0.00944
in isopentanol, 294.15 K	0.0114
in isopentanol, 299.15 K	0.0139
in isopentanol, 303.65 K	0.0168
in isopentanol, 309.15 K	0.0204
in isopentanol, 313.15 K	0.0251
in isopentanol, 319.15 K	0.0319
in isopentanol, 324.75 K	0.039
in isopropanol, 273.15 K	0.0077
in isopropanol, 279.15 K	0.00943
in isopropanol, 283.65 K	0.0114
in isopropanol, 289.15 K	0.0137
in isopropanol, 293.65 K	0.0167
in isopropanol, 298.85 K	0.0201
in isopropanol, 303.25 K	0.0246
in isopropanol, 308.95 K	0.0301
in isopropanol, 313.15 K	0.0365
in isopropanol, 317.65 K	0.0447
in isopropanol, 322.15 K	0.0552
in methanol, 273.15 K	0.0316
in methanol, 279.15 K	0.0362
in methanol, 283.65 K	0.0415
in methanol, 289.15 K	0.0473
in methanol, 293.65 K	0.0544
in methanol, 298.85 K	0.0626
in methanol, 303.25 K	0.0724
in methanol, 308.95 K	0.0836
in methanol, 313.15 K	0.0971
in methanol, 317.65 K	0.112
in methanol, 322.15 K	0.131
in methyl acetate, 273.15 K	0.0494
in methyl acetate, 279.15 K	0.0558
in methyl acetate, 284.15 K	0.062
in methyl acetate, 289.15 K	0.0676
in methyl acetate, 294.15 K	0.075
in methyl acetate, 299.15 K	0.0833
in methyl acetate, 303.65 K	0.0925
in methyl acetate, 309.15 K	0.103
in methyl acetate, 313.15 K	0.115
in methyl acetate, 319.15 K	0.132
in methyl acetate, 324.75 K	0.148
in n-butanol, 273.15 K	0.00725
in n-butanol, 279.15 K	0.00871
in n-butanol, 283.65 K	0.0104
in n-butanol, 289.15 K	0.0124
in n-butanol, 293.65 K	0.0148
in n-butanol, 298.85 K	0.0172
in n-butanol, 303.25 K	0.0209
in n-butanol, 308.95 K	0.0253
in n-butanol, 313.15 K	0.0303
in n-butanol, 317.65 K	0.0363
in n-butanol, 322.15 K	0.044
in n-pentanol, 273.15 K	0.00607
in n-pentanol, 279.15 K	0.00712
in n-pentanol, 284.15 K	0.00906
in n-pentanol, 289.15 K	0.0107
in n-pentanol, 294.15 K	0.0128
in n-pentanol, 299.15 K	0.0153
in n-pentanol, 303.65 K	0.0182
in n-pentanol, 309.15 K	0.022
in n-pentanol, 313.15 K	0.0271
in n-pentanol, 319.15 K	0.0343
in n-pentanol, 324.75 K	0.0416
in n-propanol, 273.15 K	0.00916
in n-propanol, 279.15 K	0.0111
in n-propanol, 283.65 K	0.013
in n-propanol, 289.15 K	0.0154
in n-propanol, 293.65 K	0.0183
in n-propanol, 298.85 K	0.0215
in n-propanol, 303.25 K	0.0259
in n-propanol, 308.95 K	0.0312
in n-propanol, 313.15 K	0.0376
in n-propanol, 317.65 K	0.0455
in n-propanol, 322.15 K	0.0554
